# Assays:
# [1] = Cmax in female cynomolgus monkey at 375 mg/kg, po BID measured on day 8; format: ADME, organism-based, Macaca fascicularis; design: route oral, dose 375 mg/kg; conditions: in vivo
# [2] = Change in Cmax in cynomolgus monkey at 92 umol/kg, po measured after 0.083 to 48 hrs by LC-MS/MS analysis; format: ADME, organism-based, Macaca fascicularis; conditions: in vivo, at 92 µmol/kg, time 0.083-48 hrs
# [3] = Tmax in male cynomolgus monkey at 75 mg/kg, po BID measured on day 8; format: ADME, organism-based, Macaca fascicularis; conditions: in vivo
# [4] = Tmax in male cynomolgus monkey at 675 mg/kg, po measured on day 1; format: ADME, organism-based, Macaca fascicularis; conditions: in vivo
# [5] = Change in AUC(infinity) in cynomolgus monkey at 275 umol/kg, po measured after 0.083 to 48 hrs by LC-MS/MS analysis; format: ADME, organism-based, Macaca fascicularis; conditions: in vivo, at 275 µmol/kg, time 0.083-48 hrs
# [6] = AUC (0 to 24 hrs) in female cynomolgus monkey at 675 mg/kg, po measured on day 1; format: ADME, organism-based, Macaca fascicularis; design: time < 24 hr, route oral, dose 675 mg/kg; conditions: in vivo
# [7] = Cmax in female cynomolgus monkey at 75 mg/kg, po BID measured on day 8; format: ADME, organism-based, Macaca fascicularis; design: route oral, dose 75 mg/kg; conditions: in vivo
# [8] = Drug accumulation in monkey at 75 to 375 mg/kg, po BID; format: ADME, organism-based, Macaca mulatta; conditions: rhesus monkey, in vivo, dose 75-375 mg/kg
# [9] = Tmax in male cynomolgus monkey at 150 mg/kg, po BID measured on day 8; format: ADME, organism-based, Macaca fascicularis; conditions: in vivo
# [10] = Change in AUC(infinity) in rat at 500 umol/kg, po measured upto 72 hrs by LC-MS/MS analysis; format: ADME, organism-based; conditions: in vivo, at 500 µmol/kg
# [11] = Cmax in male cynomolgus monkey at 15 mg/kg, iv measured on day 1; format: ADME, organism-based, Macaca fascicularis; design: route intravenous, dose 15 mg/kg; conditions: in vivo
# [12] = Dose normalized AUC (0 to infinity) in rat at 10 mg/kg, po measured upto 72 hrs by LC-MS/MS analysis; format: ADME, organism-based; conditions: in vivo
# [13] = Dose normalized Cmax in rat at 10 mg/kg, po measured upto 72 hrs by LC-MS/MS analysis; format: ADME, organism-based; conditions: in vivo
# [14] = Cmax in male cynomolgus monkey at 675 mg/kg, po measured on day 1; format: ADME, organism-based, Macaca fascicularis; design: route oral, dose 675 mg/kg; conditions: in vivo
# [15] = Half life in male cynomolgus monkey at 150 mg/kg, po BID measured on day 8; format: ADME, organism-based, Macaca fascicularis; conditions: in vivo
# [16] = Change in Cmax in rat at 37 umol/kg, po measured upto 72 hrs by LC-MS/MS analysis; format: ADME, organism-based; conditions: in vivo, at 37 µmol/kg
# [17] = Tmax in mouse at 287 micromol/kg administered as single dose; format: ADME; conditions: in vivo, dose 287 µmol/kg
# [18] = Half life in mouse at 1147 micromol/kg administered as single dose; format: ADME; conditions: in vivo, dose 1147 µmol/kg
# [19] = Cmax in male cynomolgus monkey at 225 mg/kg, po measured on day 1; format: ADME, organism-based, Macaca fascicularis; design: route oral, dose 225 mg/kg; conditions: in vivo
# [20] = AUC (0 to 24 hrs) in male cynomolgus monkey at 225 mg/kg, po measured on day 1; format: ADME, organism-based, Macaca fascicularis; design: time < 24 hr, route oral, dose 225 mg/kg; conditions: male, in vivo
# [21] = AUC (0 to 12 hrs) in po BID dosed cynomolgus monkey administered for 28 days; format: ADME, organism-based, Macaca fascicularis; design: route oral, time 28 day; conditions: in vivo
# [22] = Cmax in female cynomolgus monkey at 15 mg/kg, iv measured on day 1; format: ADME, organism-based, Macaca fascicularis; design: route intravenous, dose 15 mg/kg; conditions: in vivo
# [23] = Cmax in female cynomolgus monkey at 675 mg/kg, po measured on day 1; format: ADME, organism-based, Macaca fascicularis; design: route oral, dose 675 mg/kg; conditions: in vivo
# [24] = Half life in mouse at 143 micromol/kg administered as single dose; format: ADME; conditions: in vivo, dose 143 µmol/kg
# [25] = AUC (0 to 24 hrs) in female cynomolgus monkey at 150 mg/kg, po BID measured on day 8; format: ADME, organism-based, Macaca fascicularis; design: time < 24 hr, route oral, dose 150 mg/kg; conditions: in vivo
# [26] = Change in normalised Cmax in rat at 10 mg/kg, po measured upto 72 hrs by LC-MS/MS analysis; format: ADME, organism-based; conditions: in vivo
# [27] = AUC (0 to 24 hrs) in female cynomolgus monkey at 75 mg/kg, po measured on day 1; format: ADME, organism-based, Macaca fascicularis; design: time < 24 hr, route oral, dose 75 mg/kg; conditions: in vivo
# [28] = Change in normalised AUCinfinity in rat at 10 mg/kg, po measured upto 72 hrs by LC-MS/MS analysis; format: ADME, organism-based; conditions: in vivo
# [29] = Half life in female cynomolgus monkey at 150 mg/kg, po measured on day 8; format: ADME, organism-based, Macaca fascicularis; conditions: in vivo
# [30] = Tmax in female cynomolgus monkey at 675 mg/kg, po measured on day 1; format: ADME, organism-based, Macaca fascicularis; conditions: in vivo
# [31] = Change in AUC (infinity) in rat at 37 umol/kg, po measured upto 72 hrs by LC-MS/MS analysis; format: ADME, organism-based; conditions: in vivo, at 37 µmol/kg
# [32] = Cmax in female cynomolgus monkey at 75 mg/kg, po measured on day 1; format: ADME, organism-based, Macaca fascicularis; design: route oral, dose 75 mg/kg; conditions: in vivo
# [33] = Half life in male cynomolgus monkey at 675 mg/kg, po measured on day 1; format: ADME, organism-based, Macaca fascicularis; conditions: in vivo
# [34] = Half life in mouse at 287 micromol/kg administered as single dose; format: ADME; conditions: in vivo, dose 287 µmol/kg
# [35] = Tmax in male cynomolgus monkey at 225 mg/kg, po measured on day 1; format: ADME, organism-based, Macaca fascicularis; conditions: in vivo
# [36] = Change in Cmax in rat at 500 umol/kg, po measured upto 72 hrs by LC-MS/MS analysis; format: ADME, organism-based; conditions: in vivo, at 500 µmol/kg
# [37] = Change in Cmax in cynomolgus monkey at 275 umol/kg, po measured after 0.083 to 48 hrs by LC-MS/MS analysis; format: ADME, organism-based, Macaca fascicularis; conditions: in vivo, at 275 µmol/kg, time 0.083-48 hrs
# [38] = Cmax in male cynomolgus monkey at 75 mg/kg, po BID measured on day 8; format: ADME, organism-based, Macaca fascicularis; design: route oral, dose 75 mg/kg; conditions: in vivo
# [39] = Change in AUC(infinity) in cynomolgus monkey at 92 umol/kg, po measured after 0.083 to 48 hrs by LC-MS/MS analysis; format: ADME, organism-based, Macaca fascicularis; conditions: in vivo, at 92 µmol/kg, time 0.083-48 hrs
# [40] = Drug accumulation in rat at 100 to 900 mg/kg, po BID; format: ADME, organism-based; conditions: in vivo, dose 100-900 mg/kg
# [41] = Change in Cmax in rat at 185 umol/kg, po measured upto 72 hrs by LC-MS/MS analysis; format: ADME, organism-based; conditions: in vivo, at 185 µmol/kg
# [42] = Cmax in female cynomolgus monkey at 150 mg/kg, po measured on day 8; format: ADME, organism-based, Macaca fascicularis; design: route oral, dose 150 mg/kg; conditions: in vivo
# [43] = AUC (0 to 24 hrs) in male cynomolgus monkey at 675 mg/kg, po measured on day 1; format: ADME, organism-based, Macaca fascicularis; design: time < 24 hr, route oral, dose 675 mg/kg; conditions: in vivo
# [44] = Tmax in female cynomolgus monkey at 75 mg/kg, po measured on day 8; format: ADME, organism-based, Macaca fascicularis; conditions: in vivo
# [45] = Half life in female cynomolgus monkey at 675 mg/kg, po measured on day 1; format: ADME, organism-based, Macaca fascicularis; conditions: in vivo
# [46] = Half life in mouse at 573 micromol/kg administered as single dose; format: ADME; conditions: in vivo, dose 573 µmol/kg
# [47] = Change in AUC(infinity) in cynomolgus monkey at 825 umol/kg, po measured after 0.083 to 48 hrs by LC-MS/MS analysis; format: ADME, organism-based, Macaca fascicularis; conditions: in vivo, at 825 µmol/kg, time 0.083-48 hrs
# [48] = Tmax in female cynomolgus monkey at 375 mg/kg, po BID measured on day 8; format: ADME, organism-based, Macaca fascicularis; conditions: in vivo
# [49] = Change in Cmax in cynomolgus monkey at 825 umol/kg, po measured after 0.083 to 48 hrs by LC-MS/MS analysis; format: ADME, organism-based, Macaca fascicularis; conditions: in vivo, at 825 µmol/kg, time 0.083-48 hrs
# [50] = Cmax in male cynomolgus monkey at 150 mg/kg, po BID measured on day 8; format: ADME, organism-based, Macaca fascicularis; design: route oral, dose 150 mg/kg; conditions: in vivo
# [51] = AUC (0 to 24 hrs) in male cynomolgus monkey at 150 mg/kg, po BID measured on day 8; format: ADME, organism-based, Macaca fascicularis; design: time < 24 hr, route oral, dose 150 mg/kg; conditions: in vivo
smiles,measurement,setting,value
Cn1cc(C[C@@H](N)C(=O)O)c2ccccc21 [INDOXIMOD],Cmax,[1],203 µM
same,Activity,[2],0%
same,Tmax,[3],1 h
same,Tmax,[4],4 h
same,Activity,[5],0%
same,AUC,[6],6450 µM·h
same,Cmax,[7],59.3 µM
same,Drug metabolism,[8],Metabolite_Notdetected
same,Tmax,[9],2 h
same,Activity,[10],0%
same,Cmax,[11],39.5 µM
same,AUC/dose,[12],508 µM·h
same,Cmax/dose,[13],17.3 µM
same,Cmax,[14],311 µM
same,half-life,[15],168 min
same,Activity,[16],0%
same,Tmax,[17],36 min
same,half-life,[18],204 min
same,Cmax,[19],97.7 µM
same,AUC(0-t) at 24 h,[20],525 µM·h
same,AUC at 672 h,[21],320 µM·h
same,Cmax,[22],43.1 µM
same,Cmax,[23],387 µM
same,half-life,[24],180 min
same,AUC at 24 h,[25],403 µM·h
same,Activity,[26],0%
same,AUC(0-t) at 24 h,[27],177 µM·h
same,Activity,[28],0%
same,half-life,[29],162 min
same,Tmax,[30],2 h
same,Activity,[31],0%
same,Cmax,[32],55 µM
same,half-life,[33],258 min
same,half-life,[34],168 min
same,Tmax,[35],2 h
same,Activity,[36],0%
same,Activity,[37],0%
same,Cmax,[38],47.3 µM
same,Activity,[39],0%
same,Drug metabolism,[40],Metabolite_Notdetected
same,Activity,[41],0%
same,Cmax,[42],79 µM
same,AUC,[43],4470 µM·h
same,Tmax,[44],1 h
same,half-life,[45],612 min
same,half-life,[46],186 min
same,Activity,[47],0%
same,Tmax,[48],2.5 h
same,Activity,[49],0%
same,Cmax,[50],93.4 µM
same,AUC at 24 h,[51],509 µM·h
CCOC(=O)[C@@H](Cc1cn(C)c2ccccc12)NC(=O)[C@@H](N)CC(C)C.Cl,Cmax,[1],0.403 µM
same,Activity,[2],518%
same,Tmax,[3],1 h
same,Tmax,[4],2 h
same,Activity,[5],518%
same,AUC,[6],0.966 µM·h
same,Cmax,[7],0.00971 µM
same,Drug metabolism,[8],Metabolite_Notdetected
same,Tmax,[9],2 h
same,Activity,[10],15%
same,Cmax,[11],0.135 µM
same,AUC/dose,[12],888 µM·h
same,Cmax/dose,[13],16.2 µM
same,Cmax,[14],0.148 µM
same,half-life,[15],510 min
same,Activity,[16],92%
same,Tmax,[17],30 min
same,half-life,[18],192 min
same,Cmax,[19],0.0126 µM
same,AUC(0-t) at 24 h,[20],0.0602 µM·h
same,AUC at 672 h,[21],320 µM·h
same,Cmax,[22],0.135 µM
same,Cmax,[23],0.0759 µM
same,half-life,[24],174 min
same,AUC at 24 h,[25],0.057 µM·h
same,Activity,[26],24%
same,AUC(0-t) at 24 h,[27],0.0287 µM·h
same,Activity,[28],75%
same,half-life,[29],180 min
same,Tmax,[30],1 h
same,Activity,[31],70%
same,Cmax,[32],0.00846 µM
same,half-life,[33],582 min
same,half-life,[34],132 min
same,Tmax,[35],3 h
same,Activity,[36],5%
same,Activity,[37],476%
same,Cmax,[38],0.00774 µM
same,Activity,[39],195%
same,Drug metabolism,[40],Metabolite_Notdetected
same,Activity,[41],112%
same,Cmax,[42],0.0105 µM
same,AUC,[43],0.966 µM·h
same,Tmax,[44],2 h
same,half-life,[45],582 min
same,half-life,[46],186 min
same,Activity,[47],416%
same,Tmax,[48],2 h
same,Activity,[49],230%
same,Cmax,[50],0.0171 µM
same,AUC at 24 h,[51],0.0806 µM·h

# — ChEMBL document CHEMBL4837181 (Eur J Med Chem, 2020)
